Test results as given in ChEMBL document CHEMBL1201862, “PubChem BioAssay data set” (2004).
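Each compound was tested at five concentrations against cells in 96-well plates for 48 hours. GI50 is the concentration that inhibits growth by half.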 The source made the active and inactive calls. Cut-off read from the data, not from the text of the source: active = GI50 up to about 1.1 µM and inactive = higher.

Columns and labels:
Test in all cases: growth of human tumour cells (NCI), 48 h
[1] = system: OVCAR-8
[2] = system: HCT-116
[3] = system: UO-31
[4] = system: UACC-62
[5] = system: COLO 205
[6] = system: K562
[7] = system: SF-268
[8] = system: RPMI-8226
[9] = system: LOX IMVI
[10] = system: A549
[11] = system: NCI-H23
[12] = system: U-251
[13] = system: UACC-257
[14] = system: HCC 2998
[15] = system: LXFL 529
[16] = system: HOP-62
[17] = system: SR
[18] = system: SW-620
[19] = system: NCI-H460
[20] = system: SNB-78
[21] = system: KM12
[22] = system: SK-MEL-2
[23] = system: HL-60
[24] = system: M14
[25] = system: SK-MEL-5
[26] = system: A498
[27] = system: KM-20L2
[28] = system: OVCAR-3
[29] = system: SF-295
[30] = system: HOP-92
[31] = system: DMS-114
[32] = system: SN12C
[33] = system: OVCAR-5
[34] = system: DMS-273
[35] = system: SF-539
[36] = system: EKVX
[37] = system: M19-MEL
[38] = system: CCRF-CEM
[39] = system: IGROV-1
[40] = system: SK-OV-3
[41] = system: SNB-19
[42] = system: HT-29
[43] = system: ACHN
[44] = system: Malme-3M
[45] = system: RXF 393
[46] = system: SNB-75
[47] = system: DLD-1
[48] = system: NCI-H226
[49] = system: MOLT-4
[50] = system: TK-10
[51] = system: SK-MEL-28
[52] = system: 786-0
[53] = system: CAKI-1
[54] = system: NCI-H522
[55] = system: XF498
[56] = system: HCT-15

**Q.** How did the GI50 [1] turn out when `CCOC1=CP(=O)(OCC)CC(C)=C1Cl` (stereo not given) was run?
**A.** Its GI50 is > 100 µM (inactive).

**Q.** And the GI50 [2]?
**A.** The GI50 was > 100 µM (inactive).

**Q.** And the GI50 [3]?
**A.** Its GI50 is > 100 µM (inactive).

**Q.** And the GI50 [4]?
**A.** Its GI50 is > 100 µM (inactive).

**Q.** And the GI50 [5]?
**A.** The GI50 was 7.21 µM (inactive).

**Q.** And the GI50 [6]?
**A.** Its GI50 is > 100 µM (inactive).

**Q.** And the GI50 [7]?
**A.** The GI50 was > 100 µM (inactive).

**Q.** What about the GI50 [8] of the same compound?
**A.** Its GI50 is > 100 µM (inactive).

**Q.** What about the GI50 [9] of the same compound?
**A.** Its GI50 is > 100 µM (inactive).

**Q.** What about the GI50 [10] of the same compound?
**A.** The GI50 was > 100 µM (inactive).

**Q.** What about the GI50 [11] of the same compound?
**A.** The GI50 was > 100 µM (inactive).

**Q.** What about the GI50 [12] of the same compound?
**A.** The GI50 was > 100 µM (inactive).

**Q.** And the GI50 [13]?
**A.** Its GI50 is > 100 µM (inactive).

**Q.** And the GI50 [14]?
**A.** The GI50 was > 100 µM (inactive).

**Q.** What about the GI50 [15] of the same compound?
**A.** Its GI50 is > 100 µM (inactive).

**Q.** What about the GI50 [16] of the same compound?
**A.** The GI50 was > 100 µM (inactive).

**Q.** And the GI50 [17]?
**A.** Its GI50 is > 100 µM (inactive).

**Q.** What about the GI50 [18] of the same compound?
**A.** The GI50 was > 100 µM (inactive).

**Q.** And the GI50 [19]?
**A.** Its GI50 is > 100 µM (inactive).

**Q.** And the GI50 [20]?
**A.** Its GI50 is > 100 µM (inactive).

**Q.** What about the GI50 [21] of the same compound?
**A.** The GI50 was > 100 µM (inactive).

**Q.** What about the GI50 [22] of the same compound?
**A.** The GI50 was > 100 µM (inactive).

**Q.** What about the GI50 [23] of the same compound?
**A.** Its GI50 is > 100 µM (inactive).

**Q.** And the GI50 [24]?
**A.** The GI50 was > 100 µM (inactive).

**Q.** What about the GI50 [25] of the same compound?
**A.** Its GI50 is > 100 µM (inactive).

**Q.** And the GI50 [26]?
**A.** The GI50 was > 100 µM (inactive).

**Q.** And the GI50 [27]?
**A.** The GI50 was > 100 µM (inactive).

**Q.** And the GI50 [28]?
**A.** The GI50 was > 100 µM (inactive).

**Q.** And the GI50 [29]?
**A.** The GI50 was > 100 µM (inactive).

**Q.** And the GI50 [30]?
**A.** The GI50 was > 100 µM (inactive).

**Q.** What about the GI50 [31] of the same compound?
**A.** Its GI50 is > 100 µM (inactive).

**Q.** And the GI50 [32]?
**A.** Its GI50 is > 100 µM (inactive).

**Q.** And the GI50 [33]?
**A.** The GI50 was > 100 µM (inactive).

**Q.** What about the GI50 [34] of the same compound?
**A.** The GI50 was 15.7 µM (inactive).

**Q.** And the GI50 [35]?
**A.** Its GI50 is > 100 µM (inactive).

**Q.** What about the GI50 [36] of the same compound?
**A.** The GI50 was > 100 µM (inactive).

**Q.** What about the GI50 [37] of the same compound?
**A.** Its GI50 is > 100 µM (inactive).

**Q.** What about the GI50 [38] of the same compound?
**A.** The GI50 was > 100 µM (inactive).

**Q.** What about the GI50 [39] of the same compound?
**A.** The GI50 was > 100 µM (inactive).

**Q.** And the GI50 [40]?
**A.** The GI50 was > 100 µM (inactive).

**Q.** What about the GI50 [41] of the same compound?
**A.** Its GI50 is > 100 µM (inactive).

**Q.** What about the GI50 [42] of the same compound?
**A.** The GI50 was > 100 µM (inactive).

**Q.** And the GI50 [43]?
**A.** Its GI50 is > 100 µM (inactive).

**Q.** What about the GI50 [44] of the same compound?
**A.** The GI50 was > 100 µM (inactive).

**Q.** What about the GI50 [45] of the same compound?
**A.** Its GI50 is > 10 µM (inactive).

**Q.** What about the GI50 [46] of the same compound?
**A.** Its GI50 is 30.4 µM (inactive).

**Q.** And the GI50 [47]?
**A.** The GI50 was > 100 µM (inactive).

**Q.** What about the GI50 [48] of the same compound?
**A.** The GI50 was > 100 µM (inactive).

**Q.** What about the GI50 [49] of the same compound?
**A.** The GI50 was > 100 µM (inactive).

**Q.** What about the GI50 [50] of the same compound?
**A.** The GI50 was > 100 µM (inactive).

**Q.** And the GI50 [51]?
**A.** Its GI50 is > 100 µM (inactive).

**Q.** What about the GI50 [52] of the same compound?
**A.** The GI50 was > 100 µM (inactive).

**Q.** What about the GI50 [53] of the same compound?
**A.** Its GI50 is > 100 µM (inactive).

**Q.** What about the GI50 [54] of the same compound?
**A.** Its GI50 is > 100 µM (inactive).

**Q.** What does the source list for `CCC12CCCNC1c1c(n(C)c3ccccc13)C(C(=O)OC)C2` (stereo not given)?
**A.** GI50 [1]: 88.3 µM (inactive); GI50 [2]: 37.6 µM (inactive); GI50 [4]: 56.8 µM (inactive); GI50 [5]: 38.8 µM (inactive); GI50 [6]: 67.9 µM (inactive); GI50 [7]: 85.5 µM (inactive); GI50 [8]: 9.4 µM (inactive); GI50 [9]: 93.1 µM (inactive); GI50 [10]: 93.3 µM (inactive); GI50 [11]: 51.6 µM (inactive); GI50 [12]: 61.7 µM (inactive); GI50 [13]: 59.2 µM (inactive); GI50 [14]: 67.8 µM (inactive); GI50 [15]: 80.2 µM (inactive); GI50 [16]: 93.3 µM (inactive); GI50 [17]: 49.8 µM (inactive); GI50 [18]: 68.1 µM (inactive); GI50 [19]: 76.9 µM (inactive); GI50 [21]: 58.3 µM (inactive); GI50 [22]: 62.2 µM (inactive); GI50 [55]: 51.6 µM (inactive); GI50 [23]: 72.9 µM (inactive); GI50 [25]: 36.6 µM (inactive); GI50 [27]: 44.3 µM (inactive); GI50 [28]: 11.2 µM (inactive); GI50 [29]: 50.4 µM (inactive); GI50 [30]: 16.3 µM (inactive); GI50 [56]: 81.1 µM; GI50 [31]: 18.5 µM (inactive); GI50 [32]: 78.3 µM (inactive); GI50 [33]: 67 µM (inactive); GI50 [34]: 68.7 µM (inactive); GI50 [35]: 108 µM (inactive); GI50 [36]: 79.3 µM (inactive); GI50 [37]: 68.4 µM (inactive); GI50 [38]: 85.1 µM (inactive); GI50 [39]: 61.4 µM (inactive); GI50 [40]: 46.9 µM (inactive); GI50 [41]: 95.5 µM (inactive); GI50 [42]: 38.1 µM (inactive); GI50 [43]: 79.4 µM (inactive); GI50 [44]: 80.2 µM (inactive); GI50 [45]: 36.5 µM (inactive); GI50 [47]: 76.4 µM (inactive); GI50 [48]: 126 µM (inactive); GI50 [49]: 68.7 µM (inactive); GI50 [50]: 116 µM (inactive); GI50 [51]: 100 µM (inactive); GI50 [52]: 93.8 µM (inactive); GI50 [53]: 32.8 µM (inactive); GI50 [54]: 8.02 µM (inactive)
